Experimental data from patent publication US20180010188A1, “METHOD FOR DETECTING NONSENSE-MEDIATED RNA DECAY” (The Regents of the University of California, priority 2016, published 2018).

Experiments:
polysome integrity = experiment: Polysome fractionation by sucrose density gradient centrifugation; assay type: cell-based, mouse; settings: 5 hours, DMSO 30
Method: In addition to altering gene expression via the IRE1-Xbp1s signaling pathway to retain homeostasis, ER stress also reduces global protein synthesis (Harding et al., 1999. Nature 397: 271-274; Ron D. 2002. J Clin Invest 110: 1383-1388; Wek et al., 2006. Biochem Soc Trans 34: 7-11). The dose of thapsigargin inhibiting NMD was as low as 20 nM, whereas according to the literature, thapsigargin has been widely used at 1 μM to induce ER stress. To assess whether the NMD-inhibiting thapsigargin doses also repressed translation, we performed ribosome fractionation using sucrose density gradient centrifugation and examined polysome integrity as an indicator of translational activity. […] The heavier polysomes (>4 ribosomes) were affected the most and further collapsed with increasing doses of thapsigargin. Polysome disintegration was also accompanied by increasing optical density values of 80S. To quantify the dose effect of thapsigargin, we drew a line from the peak of the disome to the peak of the polysome consisting of roughly 8 ribosomes based on relative elution time. We measured the angle of this line relative to a horizontal line through the disome peak and used the angle as an indicator of polysome integrity. This angle was 30 for DMSO-treated cells and decreased to 0, −18, −20, −30 and −40 in response to increasing thapsigargin concentrations of 0.01, 0.02, 0.05, 0.1 and 0.2 μM, respectively.
For polysome fractionation, 1.5×10^7 N2a cells in 20 ml N2a complete media were plated on 150 mm petri dishes overnight and treated with varying concentrations of thapsigargin the next day. Cycloheximide (Fisher Scientific, cat. no. 50490338) was added at a concentration of 100 μg/ml, and the cells were incubated for 10 min at 37° C. before lysate collection. The cells were washed twice with 10 ml cold 1×PBS containing 100 μg/ml cycloheximide then collected in 4 ml of the same cold PBS solution. The cells were lysed with 0.5 ml lysis buffer (20 mM Tris pH 7.5, 100 mM KCl, 5 mM MgCl2, 2 mM DTT, 100 μg/ml cycloheximide, 1% Triton X-100, 50 u/ml RNaseout and 1×EDTA-free protease inhibitor cocktail). Roughly 400 μl ([…]) of lysate was loaded onto premade sucrose gradients (60% to 15%) and balanced (within 0.5 mg) before ultracentrifugation at 4° C. and 237,000 g (50,000 rpm for a SW55 Ti rotor) for 1.5 hours. Products were carefully removed from the ultracentrifuge and fractionated with the apparatus consisting of the gradient fractionator (Brandel SYN-202), the ISCO absorbance detector (ISCO # UA-6, Lincoln, Nebr.) and the fraction collector (R1 Fraction Collector) at 2.0 sensitivity and 150 cm/h chart speed to record absorbance data and collect fractionations.

Perk transcripts = experiment: Perk transcript levels by RT-qPCR; assay type: cell-based, mouse; settings: thapsigargin in control siRNA-pretreated cells
Method: Two independent siRNAs reduced the endogenous Perk transcripts to around 20% (FIG. 4A).
Neuro-2a (N2a) cells were maintained in N2a complete media consisting of L-glutamine-free Dulbecco's modified Eagle's medium (DMEM), 10% FBS and 1× GlutaMAX at 37° C. Thapsigargin (VWR, cat. no. 89161-410), ionomycin (Fisher Scientific, cat. no. AG-CN2-0416-M001) and ouabain octahydrate (Fisher Scientific, cat. no. 80055-364) were dissolved in DMSO and stored at −80° C. For the application of these chemicals, 750,000 cells were plated on 35 mm BioLite TC plates and incubated with 2 ml of N2a complete media overnight before treatment with the drugs at the indicated concentrations. The cells were collected at 5 hours post-treatment unless otherwise specified. The PERK inhibitor GSK2606414 (Thermo Fisher, cat. no. 501016108) was dissolved in DMSO and stored at −20° C. N2a cells were incubated with GSK2606414 for 1 hour before thapsigargin treatment. For L-glutamine deprivation, 750,000 N2a cells were plated overnight and switched to L-glutamine-free DMEM with 10% FBS. […]
Trizol (Life Technologies, cat. no. 15596-018) was directly added to the cells or mouse brain tissues to extract total RNA following the Trizol Reagent standard protocol. […] RNA concentrations were measured using a Nanodrop 2000c (Thermo Fisher). […] Relative expression (fold changes) was calculated using the ΔΔCt method. […]

## C/C=C(/C)C(=O)O[C@H]1C(C)=C2[C@H]([C@@H]1OC(=O)CCCCCCC)[C@@](C)(OC(C)=O)C[C@H](OC(=O)CCC)[C@@]1(O)[C@H]2OC(=O)[C@@]1(C)O [thapsigargin]
Polysome integrity; 0.01 μM
  angle of disome-to-8-ribosome peak line (polysome integrity): 0
Polysome integrity; 0.02 μM
  angle of disome-to-8-ribosome peak line (polysome integrity): −18
Polysome integrity; 0.05 μM
  angle of disome-to-8-ribosome peak line (polysome integrity): −20
Polysome integrity; 0.1 μM
  angle of disome-to-8-ribosome peak line (polysome integrity): −30
Polysome integrity; 0.2 μM
  angle of disome-to-8-ribosome peak line (polysome integrity): −40
Perk transcripts
  Perk transcript levels: increased
